# Test results published in ChEMBL document CHEMBL3396964, “SAH derived potent and selective EZH2 inhibitors” (Bioorg Med Chem Lett, 2015).
# The source made the active and inactive calls. No cut-off for these calls is given here.
# Experiments:
# [1] = molecular target: Histone-lysine N-methyltransferase EZH2 (Homo sapiens, UniProt O75530+Q09028+Q15022+Q15910); experiment: Inhibition of N-terminally FLAG-tagged wild type EZH2 in EZH2/SUZ12/EED/RbAp48 complex (unknown origin) expressed in baculovirus infected in SF9 cells assessed as inhibition of methylation of nucleosomes at H3K27 by scintillation counting in presence of [3H]SAM
# Histone-lysine N-methyltransferase EZH2, sequence (Q15910 whole entry, one chain of several): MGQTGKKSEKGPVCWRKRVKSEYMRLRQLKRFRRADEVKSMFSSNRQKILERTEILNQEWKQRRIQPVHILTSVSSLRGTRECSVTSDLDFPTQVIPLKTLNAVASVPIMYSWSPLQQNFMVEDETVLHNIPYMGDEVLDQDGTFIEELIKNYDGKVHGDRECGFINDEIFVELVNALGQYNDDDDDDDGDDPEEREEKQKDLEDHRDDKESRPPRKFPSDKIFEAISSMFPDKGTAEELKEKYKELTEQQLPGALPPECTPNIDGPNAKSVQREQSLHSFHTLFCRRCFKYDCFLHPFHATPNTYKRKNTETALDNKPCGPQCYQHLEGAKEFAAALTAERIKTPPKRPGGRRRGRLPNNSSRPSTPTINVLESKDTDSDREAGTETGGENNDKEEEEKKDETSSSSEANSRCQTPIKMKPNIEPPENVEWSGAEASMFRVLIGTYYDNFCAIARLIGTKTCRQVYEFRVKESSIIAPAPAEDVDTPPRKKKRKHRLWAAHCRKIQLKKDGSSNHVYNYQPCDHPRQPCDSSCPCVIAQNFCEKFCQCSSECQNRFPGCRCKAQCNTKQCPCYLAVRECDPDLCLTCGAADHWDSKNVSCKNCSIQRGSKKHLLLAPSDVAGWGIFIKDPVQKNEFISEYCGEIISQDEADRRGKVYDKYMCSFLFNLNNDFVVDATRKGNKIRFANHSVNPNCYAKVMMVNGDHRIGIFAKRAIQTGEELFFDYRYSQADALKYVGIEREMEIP
# [2] = molecular target: T1, Histone-lysine N-methyltransferase SETD7 (Homo sapiens, UniProt Q8WTS6); experiment: Inhibition of SETD7 (unknown origin) by HMT assay
# T1 sequence (Q8WTS6 whole entry): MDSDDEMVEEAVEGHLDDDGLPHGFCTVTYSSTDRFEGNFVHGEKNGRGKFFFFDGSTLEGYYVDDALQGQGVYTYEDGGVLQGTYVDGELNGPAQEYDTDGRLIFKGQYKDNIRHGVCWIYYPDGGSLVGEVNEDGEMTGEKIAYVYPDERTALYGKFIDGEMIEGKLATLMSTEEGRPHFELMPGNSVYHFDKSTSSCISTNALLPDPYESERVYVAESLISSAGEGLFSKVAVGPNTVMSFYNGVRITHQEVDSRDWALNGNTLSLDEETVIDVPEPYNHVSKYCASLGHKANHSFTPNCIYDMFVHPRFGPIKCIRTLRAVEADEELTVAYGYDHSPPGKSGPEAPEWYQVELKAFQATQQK
# [3] = molecular target: Histone-lysine N-methyltransferase SETDB1 (Homo sapiens, UniProt Q15047); experiment: Inhibition of SETDB1 (unknown origin) by HMT assay
# [4] = molecular target: T2, Histone-lysine N-methyltransferase SUV39H1 (Homo sapiens, UniProt O43463); experiment: Inhibition of SUV39H1 (unknown origin) by HMT assay
# T2 sequence (O43463 whole entry): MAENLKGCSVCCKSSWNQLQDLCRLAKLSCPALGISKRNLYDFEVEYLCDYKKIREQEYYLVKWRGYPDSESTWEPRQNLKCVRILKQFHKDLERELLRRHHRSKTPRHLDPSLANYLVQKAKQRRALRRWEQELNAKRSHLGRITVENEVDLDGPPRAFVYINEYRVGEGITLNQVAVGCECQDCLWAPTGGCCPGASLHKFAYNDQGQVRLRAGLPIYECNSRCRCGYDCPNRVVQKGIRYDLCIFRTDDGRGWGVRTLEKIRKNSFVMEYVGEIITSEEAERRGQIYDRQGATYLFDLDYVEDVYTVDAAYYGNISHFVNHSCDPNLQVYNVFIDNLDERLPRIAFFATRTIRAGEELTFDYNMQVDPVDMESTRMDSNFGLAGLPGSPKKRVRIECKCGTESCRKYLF
# [5] = molecular target: T3, Histone-lysine N-methyltransferase EHMT2 (Homo sapiens) (UniProt Q96KQ7); experiment: Inhibition of G9a (unknown origin) at 10 uM by HMT assay
# T3 sequence (whole entry): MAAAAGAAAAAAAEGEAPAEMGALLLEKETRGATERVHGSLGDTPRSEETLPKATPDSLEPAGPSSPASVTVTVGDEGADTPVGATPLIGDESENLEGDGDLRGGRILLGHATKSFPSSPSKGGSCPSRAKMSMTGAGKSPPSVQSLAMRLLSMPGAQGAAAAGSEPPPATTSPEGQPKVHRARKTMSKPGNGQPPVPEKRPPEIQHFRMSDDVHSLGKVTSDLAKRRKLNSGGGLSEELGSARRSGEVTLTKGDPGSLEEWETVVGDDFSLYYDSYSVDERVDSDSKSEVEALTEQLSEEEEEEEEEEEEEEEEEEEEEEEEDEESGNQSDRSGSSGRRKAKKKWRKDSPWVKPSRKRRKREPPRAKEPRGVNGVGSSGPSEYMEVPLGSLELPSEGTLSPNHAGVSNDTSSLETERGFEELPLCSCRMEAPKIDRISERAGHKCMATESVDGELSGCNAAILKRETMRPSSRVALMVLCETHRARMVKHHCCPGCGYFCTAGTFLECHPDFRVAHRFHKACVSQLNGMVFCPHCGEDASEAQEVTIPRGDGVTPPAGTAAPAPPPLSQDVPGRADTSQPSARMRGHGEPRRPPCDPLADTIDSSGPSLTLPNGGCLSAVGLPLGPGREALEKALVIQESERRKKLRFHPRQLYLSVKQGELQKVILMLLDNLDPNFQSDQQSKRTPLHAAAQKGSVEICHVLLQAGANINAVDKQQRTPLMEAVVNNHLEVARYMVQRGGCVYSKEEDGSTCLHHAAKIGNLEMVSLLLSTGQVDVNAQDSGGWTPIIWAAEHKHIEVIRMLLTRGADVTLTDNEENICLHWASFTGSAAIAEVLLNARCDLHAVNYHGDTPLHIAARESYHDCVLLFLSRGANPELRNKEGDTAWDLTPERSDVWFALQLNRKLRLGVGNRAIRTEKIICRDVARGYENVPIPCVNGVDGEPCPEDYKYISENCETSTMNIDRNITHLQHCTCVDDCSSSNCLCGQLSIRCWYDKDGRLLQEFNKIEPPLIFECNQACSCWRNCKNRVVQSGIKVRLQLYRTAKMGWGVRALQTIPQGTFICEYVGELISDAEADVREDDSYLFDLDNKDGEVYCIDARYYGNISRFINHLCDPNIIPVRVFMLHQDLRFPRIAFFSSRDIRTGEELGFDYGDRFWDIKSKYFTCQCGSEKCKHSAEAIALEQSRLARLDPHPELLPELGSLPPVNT
# [6] = molecular target: T4, Histone-lysine N-methyltransferase SETD7 (Homo sapiens) (UniProt Q8WTS6); conditions: 10 uM
# T4 sequence (whole entry): T1 sequence (Q8WTS6 whole entry)
# Description: Inhibition of SETD7 (unknown origin) at 10 uM by HMT assay
compound,measurement,setting,value
Nc1ncnc2c1ncn2[C@@H]1O[C@H](CSCC[C@H](N)C(=O)NCc2cc(-c3ccccc3)[nH]n2)[C@@H](O)[C@H]1O,IC50,[1],0.27 µM
same,IC50,[2],> 100 µM
same,IC50,[3],> 100 µM
same,IC50,[4],9.5 µM
same,inhibition,[5],20%
same,inhibition,[6],inactive
